Results as given in ChEMBL document CHEMBL1130772, “New nonsteroidal androgen receptor modulators based on 4-(trifluoromethyl)-2(1H)-pyrrolidino[3,2-g] quinolinone” (Bioorg Med Chem Lett, 1998).

Columns and labels:
Androgen receptor [1] = target: T1, Androgen receptor (Homo sapiens, UniProt P10275); test: Binding affinity against hAR androgen receptor expressed in COS cells; format: cell-based
T1 sequence (P10275 whole entry): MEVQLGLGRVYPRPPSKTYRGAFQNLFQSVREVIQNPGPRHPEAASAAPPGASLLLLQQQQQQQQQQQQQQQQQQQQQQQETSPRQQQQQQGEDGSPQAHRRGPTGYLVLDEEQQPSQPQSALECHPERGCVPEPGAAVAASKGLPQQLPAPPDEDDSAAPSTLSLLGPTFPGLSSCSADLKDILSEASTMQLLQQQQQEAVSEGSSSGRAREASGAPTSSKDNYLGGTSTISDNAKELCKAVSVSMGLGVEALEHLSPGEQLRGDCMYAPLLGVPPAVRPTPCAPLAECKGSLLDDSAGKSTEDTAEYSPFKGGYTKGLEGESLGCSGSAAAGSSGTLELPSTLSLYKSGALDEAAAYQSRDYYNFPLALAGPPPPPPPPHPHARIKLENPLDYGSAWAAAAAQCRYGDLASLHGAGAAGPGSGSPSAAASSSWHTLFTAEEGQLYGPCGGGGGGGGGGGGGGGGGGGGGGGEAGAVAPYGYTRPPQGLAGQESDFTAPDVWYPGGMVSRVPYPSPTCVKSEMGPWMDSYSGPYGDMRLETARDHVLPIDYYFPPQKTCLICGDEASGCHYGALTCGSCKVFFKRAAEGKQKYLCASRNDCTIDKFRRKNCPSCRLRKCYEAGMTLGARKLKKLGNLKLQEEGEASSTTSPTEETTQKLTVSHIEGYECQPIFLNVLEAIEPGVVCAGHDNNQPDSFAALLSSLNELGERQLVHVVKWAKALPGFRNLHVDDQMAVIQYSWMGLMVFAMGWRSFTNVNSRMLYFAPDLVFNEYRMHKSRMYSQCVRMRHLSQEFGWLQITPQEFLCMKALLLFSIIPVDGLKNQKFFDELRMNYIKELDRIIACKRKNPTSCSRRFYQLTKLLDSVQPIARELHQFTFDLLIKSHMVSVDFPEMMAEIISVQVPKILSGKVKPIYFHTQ

Androgen receptor [2] = target: T1, Androgen receptor
Description: Antagonistic activity (IC50) against human androgen receptor (hAR) in co-transfected CV-1 cell

Androgen receptor [3] = target: T1, Androgen receptor; settings: cv-1
Description: Agonistic activity against human androgen receptor (hAR) in co-transfected CV-1 cell

| SMILES | Ki (Androgen receptor [1]) [µM] | IC50 (Androgen receptor [2]) [µM] | EC50 (Androgen receptor [3]) |
| --- | --- | --- | --- |
| CN1c2cc3c(cc2[C@H]2CCCC(C)(C)[C@H]21)c(C(F)(F)F)cc(=O)n3C | 0.059 | 0.027 | Not Active |
| CN1CCc2cc3c(C(F)(F)F)cc(=O)n(C)c3cc21 | 0.167 | 0.197 | Not Active |
| CC1(C)CCC[C@@H]2c3cc4c(C(F)(F)F)cc(O)nc4cc3N[C@@H]21 | 0.079 | 0.026 | Not Active |
